The record followed here is patent US7223733B2, “Modulation of TRIP-Br function and method of treating proliferative disorders” (National University of Singapore, priority 2004, dated 2007).

In one data set the test system is hTRIP-Br2 mRNA. The experiment in a line: Semi-quantitative RT-PCR of intact hTRIP-Br2 transcripts in WI-38 cells. The data set is classed as cell-based, human. The following applies: WI-38, 0.1 μM, 16 h post-stimulation with 10% FBS. On the procedure:
(§1) DNA enzyme transfection. WI-38 cells were rendered quiescent by cultivation in serum-free medium for 72 h before being transfected with DNA enzyme (0.1 μM) using Superfect as reported previously (Santiago, F. S., et al. Nat Med 5, 1264-1269 (1999)) in accordance to manufacturer's recommendations (Qiagen).
(§2) Semi-quantitative RT-PCR. Following various treatments, WI-38 cells in 6-well culture dish were subjected to total RNA extraction using the TRIZOL® Reagent (Life Technologies). Total RNA (4 μg) was reversed transcribed using oligo-dT and M-MLV reverse transcriptase in a total reaction volume of 20 μl. Polymerase Chain Reactions (PCR) were carried out on 3 μl cDNA sample in the presence of […] deoxyribonucleotide triphosphates (dNTPs) and 40 μM of specific primer pairs in a total reaction volume of 50 μl. […] Post-PCR samples were analyzed by agarose gel electrophoresis.
(§3) FIG. 11: (A) hTRIP-Br1 and hTRIP-Br2 expression is serum-inducible. […] At 24 h post-serum re-stimulation, semi-quantitative RT-PCR analysis was performed on total RNA to assess hTRIP-Br1 and hTRIP-Br2 expression. β-actin was included as an internal control. […] Semi-quantitative RT-PCR analysis was performed on total RNA to assess hTRIP-Br1 and hTRIP-Br2 expression. β-actin was included as an internal control. […]

For a further data set, the system named is hTRIP-Br1 mRNA. The data set is described as follows: Semi-quantitative RT-PCR of intact hTRIP-Br1 transcripts in WI-38 cells. The data set is classed as cell-based, human. The conditions noted are these: WI-38, 0.1 μM, 16 h post-stimulation with 10% FBS. On the procedure: as §1, §2, §3

[invdT] = inverted (3'-3') thymidine

Regarding “5′-T TACCCAACAGGCTAGCTACAACGAATATCACA-3′ (DNA TTACCCAACAGGCTAGCTACAACGAATATCACA; DNA, 3' [invdT], backbone not given here) [E-Br2]”, the “serum-inducible steady-state hTRIP-Br2 mRNA level” value in the data set with hTRIP-Br2 mRNA was “efficiently down-regulated”.

For the substance “5′-T TGCTCAGCAGGCTAGCTACAACGACTTGCTCA-3′ (DNA TTGCTCAGCAGGCTAGCTACAACGACTTGCTCA; DNA, 3' [invdT], backbone not given here) [E-Br1]”, in the data set on hTRIP-Br1 mRNA, the “serum-inducible steady-state hTRIP-Br1 mRNA level” value is recorded as “efficiently down-regulated”.
